# Where a SMILES comes first, the peptide text is derived from it. Bridges are numbered along the chain shown (N, C = ends). [ ]: non-standard residue; d: D form. The star is where a group is joined. Phe(4-COOH) = N[C@@H](Cc1ccc(C(=O)O)cc1)C(=O)O; Bip = N[C@@H](Cc1ccc(-c2ccccc2)cc1)C(=O)O; 3Pal = N[C@@H](Cc1cccnc1)C(=O)O; 4Pal = N[C@@H](Cc1ccncc1)C(=O)O; Cit = NC(=O)NCCC[C@H](N)C(=O)O; Carboxymethyl = O=C(O)C*; Orn = NCCC[C@H](N)C(=O)O; Dab = NCC[C@H](N)C(=O)O; Dap = NC[C@H](N)C(=O)O
# Molecular target: T1, human PD-1 / PD-L1-Ig binding on Jurkat cell line over-expressing human PD-1 (Jurkat-PD-1) (Homo sapiens, UniProt Q15116)
# T1 construct: expressed in transfected cells; host or cells: Jurkat
# T1 sequence (Q15116 25-288): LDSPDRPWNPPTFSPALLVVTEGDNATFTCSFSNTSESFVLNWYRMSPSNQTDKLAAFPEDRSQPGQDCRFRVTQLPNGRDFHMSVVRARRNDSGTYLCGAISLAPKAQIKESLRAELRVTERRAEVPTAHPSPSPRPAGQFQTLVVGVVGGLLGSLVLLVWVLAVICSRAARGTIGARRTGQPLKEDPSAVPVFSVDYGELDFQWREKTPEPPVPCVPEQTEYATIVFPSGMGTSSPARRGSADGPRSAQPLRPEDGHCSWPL
# Test: Jurkat-PD-1 Cell Binding High-Content Screening Assay (CBA)
# Format: cell-based
# Conditions: Jurkat-PD-1 cells, PE-labeled PD-L1-Ig 20 nM final; read-out: Jurkat HPD1_PDL1 IC50
# How it was run: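 Read-out: high-content imaging of PE-tagged PD-L1-Ig bound to Jurkat cells overexpressing human PD-1, after fixation with 4% paraformaldehyde and Hoechst 33342 nuclear staining. Ligand was used at 20 nM final for 1 hour, after a 2 h compound exposure at 37° C in serum-containing DMEM.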
row,SMILES,IC50 [nM]
1,CC(C)C[C@@H]1NC(=O)[C@H](CCN)NC(=O)[C@@H](CC(C)C)NC(=O)[C@H](CC(C)C)NC(=O)[C@H](C(C)C)NC(=O)[C@H](Cc2ccc(-c3ccccc3)cc2)NC(=O)[C@H](C(C)C)NC(=O)[C@H](Cc2c[nH]c3ccccc23)NC(=O)[C@H](CC(=O)O)NC(=O)[C@H](Cc2ccc(O)cc2)NC(=O)[C@H](CC(N)=O)NC(=O)CSC[C@@H](C(=O)N[C@@H](C)C(N)=O)NC(=O)[C@H]([C@@H](C)O)NC(=O)[C@H](C(C)C)NC1=O [Compound 1037] ({CH2CO}-NYDWV[Bip]VL[dL][Dab]LVTCA-NH2; thioether N-14),53.9
2,CC[C@H](C)[C@@H]1NC(=O)[C@H](Cc2ccc(-c3ccccc3)cc2)NC(=O)[C@H](C(C)C)NC(=O)[C@H](Cc2c[nH]c3ccccc23)NC(=O)[C@H](CC(=O)O)NC(=O)[C@H](Cc2ccc(O)cc2)NC(=O)[C@H](CC(N)=O)NC(=O)CSC[C@@H](C(=O)N[C@@H](C)C(N)=O)NC(=O)[C@H]([C@@H](C)O)NC(=O)[C@H](C(C)C)NC(=O)[C@H](CC(C)C)NC(=O)[C@H](CCN)NC(=O)[C@@H](CC(C)C)NC(=O)[C@H](CCCN)NC1=O [Compound 1038] ({CH2CO}-NYDWV[Bip]I[Orn][dL][Dab]LVTCA-NH2; thioether N-14),7
3,CC[C@H](C)[C@@H]1NC(=O)[C@H](Cc2ccc(-c3ccccc3)cc2)NC(=O)[C@H](C(C)C)NC(=O)[C@H](Cc2c[nH]c3ccccc23)NC(=O)[C@H](CC(=O)O)NC(=O)[C@H](Cc2ccc(O)cc2)NC(=O)[C@H](CC(N)=O)NC(=O)CSC[C@@H](C(=O)N[C@@H](C)C(N)=O)NC(=O)[C@H]([C@@H](C)O)NC(=O)[C@H](C(C)C)NC(=O)[C@H](CC(C)C)NC(=O)[C@H](CCN)NC(=O)[C@@H](CC(C)C)NC(=O)[C@H](CCCCN)NC1=O [Compound 1039] ({CH2CO}-NYDWV[Bip]IK[dL][Dab]LVTCA-NH2; thioether N-14),12.1
4,CC(C)C[C@@H]1NC(=O)[C@H](CCN)NC(=O)[C@@H](CC(C)C)NC(=O)[C@H](CCCN)NC(=O)[C@H](CCCNC(N)=O)NC(=O)[C@H](Cc2ccc(-c3ccccc3)cc2)NC(=O)[C@H](C(C)C)NC(=O)[C@H](Cc2c[nH]c3ccccc23)NC(=O)[C@H](CC(=O)O)NC(=O)[C@H](Cc2ccc(OCC(=O)O)cc2)NC(=O)[C@H](CN)NC(=O)CSC[C@@H](C(=O)N[C@@H](C)C(N)=O)NC(=O)[C@H]([C@@H](C)O)NC(=O)[C@H](C(C)C)NC1=O [Compound 1040] ({CH2CO}-[Dap]Y(Carboxymethyl)DWV[Bip][Cit][Orn][dL][Dab]LVTCA-NH2; thioether N-14),24.3
5,CC(C)C[C@@H]1NC(=O)[C@H](CCN)NC(=O)[C@@H](CC(C)C)NC(=O)[C@H](CCCN)NC(=O)[C@H](CCCNC(N)=O)NC(=O)[C@H](Cc2ccc(-c3ccccc3)cc2)NC(=O)[C@H](C(C)C)NC(=O)[C@H](Cc2c[nH]c3ccccc23)NC(=O)[C@H](CC(=O)O)NC(=O)[C@H](Cc2ccc(O)cc2)NC(=O)[C@H](Cc2cccnc2)NC(=O)CSC[C@@H](C(=O)N[C@@H](C)C(N)=O)NC(=O)[C@H]([C@@H](C)O)NC(=O)[C@H](C(C)C)NC1=O [Compound 1041] ({CH2CO}-[3Pal]YDWV[Bip][Cit][Orn][dL][Dab]LVTCA-NH2; thioether N-14),42.4
6,CC(C)C[C@@H]1NC(=O)[C@H](CCN)NC(=O)[C@@H](CC(C)C)NC(=O)[C@H](CCCN)NC(=O)[C@H](CCCNC(N)=O)NC(=O)[C@H](Cc2ccc(-c3ccccc3)cc2)NC(=O)[C@H](C(C)C)NC(=O)[C@H](Cc2c[nH]c3ccccc23)NC(=O)[C@H](CC(=O)O)NC(=O)[C@H](Cc2ccc(OCC(=O)O)cc2)NC(=O)[C@H](Cc2ccncc2)NC(=O)CSC[C@@H](C(=O)N[C@@H](C)C(N)=O)NC(=O)[C@H]([C@@H](C)O)NC(=O)[C@H](C(C)C)NC1=O [Compound 1042] ({CH2CO}-[4Pal]Y(Carboxymethyl)DWV[Bip][Cit][Orn][dL][Dab]LVTCA-NH2; thioether N-14),13
7,CC(C)C[C@@H]1NC(=O)[C@H](CCN)NC(=O)[C@@H](CC(C)C)NC(=O)[C@H](CCCN)NC(=O)[C@H](CCCNC(N)=O)NC(=O)[C@H](Cc2ccc(-c3ccccc3)cc2)NC(=O)[C@H](C(C)C)NC(=O)[C@H](Cc2c[nH]c3ccccc23)NC(=O)[C@H](CC(=O)O)NC(=O)[C@H](Cc2ccc(C(=O)O)cc2)NC(=O)[C@H](CN)NC(=O)CSC[C@@H](C(=O)N[C@@H](C)C(N)=O)NC(=O)[C@H]([C@@H](C)O)NC(=O)[C@H](C(C)C)NC1=O [Compound 1043] ({CH2CO}-[Dap][Phe(4-COOH)]DWV[Bip][Cit][Orn][dL][Dab]LVTCA-NH2; thioether N-14),31.9
8,CC(C)C[C@@H]1NC(=O)[C@H](CCN)NC(=O)[C@@H](CC(C)C)NC(=O)[C@H](CCCN)NC(=O)[C@H](CCCNC(N)=O)NC(=O)[C@H](Cc2ccc(-c3ccccc3)cc2)NC(=O)[C@H](C(C)C)NC(=O)[C@H](Cc2c[nH]c3ccccc23)NC(=O)[C@H](CC(=O)O)NC(=O)[C@H](Cc2ccc(O)cc2)NC(=O)[C@H](Cc2ccncc2)NC(=O)CSC[C@@H](C(=O)N[C@@H](C)C(N)=O)NC(=O)[C@H]([C@@H](C)O)NC(=O)[C@H](C(C)C)NC1=O [Compound 1044] ({CH2CO}-[4Pal]YDWV[Bip][Cit][Orn][dL][Dab]LVTCA-NH2; thioether N-14),26.1
9,CC(C)C[C@@H]1NC(=O)[C@H](CCN)NC(=O)[C@@H](CC(C)C)NC(=O)[C@H](CCCN)NC(=O)[C@H](CCCNC(N)=O)NC(=O)[C@H](Cc2ccc(-c3ccccc3)cc2)NC(=O)[C@H](C(C)C)NC(=O)[C@H](Cc2c[nH]c3ccccc23)NC(=O)[C@H](CC(=O)O)NC(=O)[C@H](Cc2ccc(C(=O)O)cc2)NC(=O)[C@H](Cc2cccnc2)NC(=O)CSC[C@@H](C(=O)N[C@@H](C)C(N)=O)NC(=O)[C@H]([C@@H](C)O)NC(=O)[C@H](C(C)C)NC1=O [Compound 1045] ({CH2CO}-[3Pal][Phe(4-COOH)]DWV[Bip][Cit][Orn][dL][Dab]LVTCA-NH2; thioether N-14),28.4
10,CC(C)C[C@@H]1NC(=O)[C@H](CCN)NC(=O)[C@@H](CC(C)C)NC(=O)[C@H](CCCN)NC(=O)[C@H](C(C)C)NC(=O)[C@H](Cc2ccc(-c3ccccc3)cc2)NC(=O)[C@H](C(C)C)NC(=O)[C@H](Cc2c[nH]c3ccccc23)NC(=O)[C@H](CC(=O)O)NC(=O)[C@H](Cc2ccc(C(=O)O)cc2)NC(=O)[C@H](CN)NC(=O)CSC[C@@H](C(=O)N[C@@H](C)C(N)=O)NC(=O)[C@H]([C@@H](C)O)NC(=O)[C@H](C(C)C)NC1=O [Compound 1046] ({CH2CO}-[Dap][Phe(4-COOH)]DWV[Bip]V[Orn][dL][Dab]LVTCA-NH2; thioether N-14),14
11,CC(C)C[C@@H]1NC(=O)[C@H](CCN)NC(=O)[C@@H](CC(C)C)NC(=O)[C@H](CCCN)NC(=O)[C@H](C(C)C)NC(=O)[C@H](Cc2ccc(-c3ccccc3)cc2)NC(=O)[C@H](C(C)C)NC(=O)[C@H](Cc2c[nH]c3ccccc23)NC(=O)[C@H](CC(=O)O)NC(=O)[C@H](Cc2ccc(O)cc2)NC(=O)[C@H](Cc2ccncc2)NC(=O)CSC[C@@H](C(=O)N[C@@H](C)C(N)=O)NC(=O)[C@H]([C@@H](C)O)NC(=O)[C@H](C(C)C)NC1=O [Compound 1047] ({CH2CO}-[4Pal]YDWV[Bip]V[Orn][dL][Dab]LVTCA-NH2; thioether N-14),6.7
12,CC(C)C[C@@H]1NC(=O)[C@H](CCN)NC(=O)[C@@H](CC(C)C)NC(=O)[C@H](CCCN)NC(=O)[C@H](C(C)C)NC(=O)[C@H](Cc2ccc(-c3ccccc3)cc2)NC(=O)[C@H](C(C)C)NC(=O)[C@H](Cc2c[nH]c3ccccc23)NC(=O)[C@H](CC(=O)O)NC(=O)[C@H](Cc2ccc(OCC(=O)O)cc2)NC(=O)[C@H](CN)NC(=O)CSC[C@@H](C(=O)N[C@@H](C)C(N)=O)NC(=O)[C@H]([C@@H](C)O)NC(=O)[C@H](C(C)C)NC1=O [Compound 1048] ({CH2CO}-[Dap]Y(Carboxymethyl)DWV[Bip]V[Orn][dL][Dab]LVTCA-NH2; thioether N-14),13.7
13,CC(C)C[C@@H]1NC(=O)[C@H](CCN)NC(=O)[C@@H](CC(C)C)NC(=O)[C@H](CCCN)NC(=O)[C@H](C(C)C)NC(=O)[C@H](Cc2ccc(-c3ccccc3)cc2)NC(=O)[C@H](C(C)C)NC(=O)[C@H](Cc2c[nH]c3ccccc23)NC(=O)[C@H](CC(=O)O)NC(=O)[C@H](Cc2ccc(C(=O)O)cc2)NC(=O)[C@H](Cc2cccnc2)NC(=O)CSC[C@@H](C(=O)N[C@@H](C)C(N)=O)NC(=O)[C@H]([C@@H](C)O)NC(=O)[C@H](C(C)C)NC1=O [Compound 1049] ({CH2CO}-[3Pal][Phe(4-COOH)]DWV[Bip]V[Orn][dL][Dab]LVTCA-NH2; thioether N-14),7.2
14,CC(C)C[C@@H]1NC(=O)[C@H](CCN)NC(=O)[C@@H](CC(C)C)NC(=O)[C@H](CCCN)NC(=O)[C@H](C(C)C)NC(=O)[C@H](Cc2ccc(-c3ccccc3)cc2)NC(=O)[C@H](C(C)C)NC(=O)[C@H](Cc2c[nH]c3ccccc23)NC(=O)[C@H](CC(=O)O)NC(=O)[C@H](Cc2ccc(O)cc2)NC(=O)[C@H](Cc2cccnc2)NC(=O)CSC[C@@H](C(=O)N[C@@H](C)C(N)=O)NC(=O)[C@H]([C@@H](C)O)NC(=O)[C@H](C(C)C)NC1=O [Compound 1050] ({CH2CO}-[3Pal]YDWV[Bip]V[Orn][dL][Dab]LVTCA-NH2; thioether N-14),9.9
15,CC(C)C[C@@H]1NC(=O)[C@H](CCN)NC(=O)[C@@H](CC(C)C)NC(=O)[C@H](CCCN)NC(=O)[C@H](C(C)C)NC(=O)[C@H](Cc2ccc(-c3ccccc3)cc2)NC(=O)[C@H](C(C)C)NC(=O)[C@H](Cc2c[nH]c3ccccc23)NC(=O)[C@H](CC(=O)O)NC(=O)[C@H](Cc2ccc(OCC(=O)O)cc2)NC(=O)[C@H](Cc2ccncc2)NC(=O)CSC[C@@H](C(=O)N[C@@H](C)C(N)=O)NC(=O)[C@H]([C@@H](C)O)NC(=O)[C@H](C(C)C)NC1=O [Compound 1051] ({CH2CO}-[4Pal]Y(Carboxymethyl)DWV[Bip]V[Orn][dL][Dab]LVTCA-NH2; thioether N-14),5.2

# Source: patent US20250163104A1, “MACROCYCLIC IMMUNOMODULATORS” (priority 2021, published 2025)
